{
  "source": "paper PMC10145360",
  "about": "“Antiplatelet Aggregation Properties of Cirsilineol: A Novel Inhibitor of Blood Coagulation Factor Xa” (Pharmaceuticals, 2023)",
  "key": {"[1]": {"target": "T1, Factor Xa (Homo sapiens, UniProt P00742)", "T1 construct": "Factor Xa; purchased Haematologic Technologies (Essex Junction, VT, USA)", "T1 sequence (P00742 235-488 limits assumed)": "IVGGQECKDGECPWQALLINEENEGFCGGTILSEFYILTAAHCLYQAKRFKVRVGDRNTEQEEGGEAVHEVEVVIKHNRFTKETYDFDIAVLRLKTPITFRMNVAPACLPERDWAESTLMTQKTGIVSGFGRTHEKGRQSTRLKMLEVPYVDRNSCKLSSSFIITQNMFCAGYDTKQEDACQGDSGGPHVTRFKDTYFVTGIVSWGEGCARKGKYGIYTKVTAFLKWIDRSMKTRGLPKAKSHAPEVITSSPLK", "T1 sequence (P00742 41-179 partner limits assumed)": "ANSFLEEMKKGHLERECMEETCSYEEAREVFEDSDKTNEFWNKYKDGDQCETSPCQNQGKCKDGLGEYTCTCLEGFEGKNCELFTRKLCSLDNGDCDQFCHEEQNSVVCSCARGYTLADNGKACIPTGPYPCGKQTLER", "test": "FXa amidolytic activity and inhibitory constant (chromogenic substrate)", "assay_type": "biochemical", "procedure": "CSL was dissolved in 50 mM Tris buffer, which has a pH of 7.4, and was added to 150 μL of FXa solution (1 U/mL). This mixture was incubated for 1 min at 37 °C. Additionally, 150 μL of S-2222 solution (1.5 mM) was blended, and for 20 min, the changes in absorbance were observed spectrophotometrically at 405 nm. We used the slope of the curve (Vi) and the absorbance–time curve to determine enzyme activity. Equation (1) was used to compute the CSL inhibitory rates:Inhibitory rate (%) = (V0 − Vi)/V0 × 100(1) where Vi and V0 represent the slopes of the samples and the vehicle, respectively.\nKi values were calculated based on chromogenic substrate experiments. CSL was employed in each assay at a minimum of seven concentrations in duplicate to obtain an inhibition curve. A total of 50 μL of substrate was combined with 25 μL of each chemical solution, inhibitor solution, or blank buffer. Before the plate was allocated into the Labsystems IEMS microtiter plate reader (Cergy Pontoise, France), 25 μL of the enzyme solution was mixed. The plate was allowed for 1 h at 37 °C before analysis. We continuously observed the formation of p-nitroaniline produced when the substrate was hydrolyzed using spectrophotometry at 405 nm. The maximum initial reaction rates were computed as the millioptical density per minute. A Dixon plot of 1/Vmax versus inhibitor concentration was used to fit the curve and determine the Ki values."}, "[2]": {"tested_on": "platelet-poor plasma (PPP)", "test": "In vitro aPTT clotting time in platelet-poor plasma", "design": "species or system human", "procedure": "Figure 2 Effects of CSL on clotting time. (A) Platelet-poor plasma (PPP) was incubated with the indicated concentrations of CSL or rivaroxaban (Riva) for 15 min. (B) One hour after administering DMSO, CSL, or Riva, blood was collected from the mice, and PPP was obtained. Then, in vitro aPTT (A) or ex vivo aPTT was measured, as described in the Methods sections. Data are shown as mean values ± SD of five independent experiments. * p < 0.05 vs. D. D = 0.2% DMSO, used as the vehicle control.\nTen fasting healthy volunteers (aged 24–28; six women and four men) who were free of allergies, cardiovascular problems, carbohydrate, or lipid metabolic abnormalities and had not taken any morning medication had their blood samples taken. None of our subjects used addictive drugs or antioxidant food supplements, and their diets were well balanced. The plasma from the blood samples was immediately spun down (1300× g for 15 min) to separate it from sodium citrate (10.9 mM) and pooled for the following investigations. Next, human blood samples were spun down at room temperature to rapidly separate the PRP. The PRP concentration was adjusted to 1 × 10^9 platelets/mL using a hemocytometer. After being rinsed once in HEPES buffer containing 1 mM CaCl2, the PRP pellet was maintained at room temperature for an additional 30 min. Then, 10 mL of the platelet samples were utilized to measure each clotting time point. The IRB of Kyungpook National University Hospital (Daegu, Republic of Korea) approved this study protocol (KNUH 2012-01-010).\nPlasma was taken by centrifuging blood (2000× g for 10 min) at room temperature following dimethyl sulfoxide (DMSO) or CSL administration for 1 h to assess PT and aPTT using a thrombotimer (Behnk Elektronik, Norderstedt, Germany). Micronized silica was utilized as an activator for the aPTT test. Briefly, 100 μL of platelet-poor plasma (PPP) and 100 μL of aPTT assay reagent were combined for 1 min at 37 °C, 100 µL of CaCl2 (20 mM) was added, and the clotting times were noted. […] Next, the clotting time was measured."}},
  "note": "Where “and” joins values, the source holds several entries; their conditions need not be identical. Identical values can stand only once.",
  "data": [
    {"compound": "COc1cc(-c2cc(=O)c3c(O)c(OC)c(OC)cc3o2)ccc1O", "note": "[CSL, 4,5-dihydroxy-3,6,7-trimethoxyflavone]", "values": [
      {"measurement": "Km value of FXa on S-2222", "setting": "[1]", "result": "increase"},
      {"measurement": "Vmax of FXa on S-2222", "setting": "[1]", "result": "decrease"},
      {"measurement": "selectivity ratio (based on Ki values) for FXa compared to other enzymes examined", "setting": "[1]", "result": "> 300"},
      {"measurement": "slope of Michaelis–Menten plot", "setting": "[1]; CSL 10 μM, FXa on S-2222", "result": 0.568},
      {"measurement": "slope of Michaelis–Menten plot", "setting": "[1]; CSL 20 μM, FXa on S-2222", "result": 0.759},
      {"measurement": "inhibitory pattern (Lineweaver–Burk plot)", "setting": "[1]; FXa on S-2222", "result": "mixed-type inhibitory pattern"},
      {"measurement": "Ratio = Ki enzyme/Ki Factor Xa", "setting": "[1]; Factor Xa", "result": 1},
      {"measurement": "Ki", "setting": "[1]; Factor Xa, chromogenic substrate S-2222, Dixon plot", "result": "3.71 µM and 3.7 µM"},
      {"measurement": "concentration that doubled the clotting time (in vitro aPTT)", "setting": "[2]; PPP incubated 15 min", "result": 7.23, "unit": "µM"},
      {"measurement": "aPTT in vitro", "setting": "[2]; doses between 5 and 20 M", "result": "considerably slowed the aPTT"}
    ]}
  ]
}
